The results in this text go back to patent US12339285B2, “Method for estimating therapeutic efficacy” (Konica Minolta, Inc., priority 2017, dated 2025).

Read-outs that look alike come from different tables or passages of the source.

For the experiment, the system named is tumor tissue of lung cancer patients transplanted in SCID mice. As to the method: Further, tumor tissue was collected from each of the patients at the same time when drug administration was started, and a 2 mm-square piece of the tumor tissue was transplanted under the skin of SCID (Severe Combined ImminoDeficiency) mice (5 mice transplanted with tumor tissue derived from each patient were produced, and a total of 20 mice were produced). […] After 1 day and 100 days from the administration, tumor tissue was collected from the mice, and sample slides were prepared in the same manner as in Preparation for evaluation-1.

As for `COc1cc2ncnc(Nc3ccc(F)c(Cl)c3)c2cc1OCCCN1CCOCC1` [Gefitinib], the “resistance in PDX mice” value (PDX mice of the patient B or D (so in the source), judged from tumor volume) was “resistance was not developed”. The volume of tumor result reads like this: (PDX mice transplanted with tumor tissue of patient F or H (drug resistant on day 100)) “once reduced on day 100 after drug administration, but was increased thereafter”; (PDX mice transplanted with tumor tissue of the patient B or D (so in the source) with no drug resistance on day 100) “gradually reduced”. In addition, the “resistance to Gefitinib in PDX mice” value (PDX mice transplanted with tumor tissue of patient F or H, judged from tumor volume) is reported as “resistance to Gefitinib was developed”.
